Data taken from ChEMBL document CHEMBL1201862, “PubChem BioAssay data set” (2004).
Calls of active or inactive are those of the source. Rule as the data show it: active = IC50 of 20 µM or less and inactive = more.

Tests used:
Assay type in all cases: functional, cell-based
Settings in all cases: Homo sapiens
Jurkat [1] = experiment: SAR Analysis of small molecule inhibitors of […] specific antigen receptor-induced NF-kB activation in a Jurkat cell line using a luminescence assay - Set 3. [Related pubchem assays (depositor defined):AID435022, AID435025, AID465]
HEK293 [2] = experiment: SAR Analysis of small molecule inhibitors of B-cell specific antigen receptor-induced NF-kB activation in a HEK-293T cell line using a luminescence assay - Set 2. [Related pubchem assays (depositor defined):AID435022, AID435025, AID489021]
HEK293 [3] = experiment: HEK293T cell viability loss, resazurin readout – resazurin fluorescence, cytotoxicity control for NF-kB activator project, SAR follow-up (AID 493251)
Jurkat [4] = experiment: SAR Analysis of small molecule inhibitors of T-cell specific antigen receptor-induced NF-kB activation in a Jurkat cell line using a luminescence assay - Set 2. [Related pubchem assays (depositor defined):AID435003, AID435012, AID465]
HEK293 [5] = experiment: SAR Analysis of small molecule inhibitors of T-cell specific antigen receptor-induced NF-kB activation in a HEK-293T cell line using a luminescence assay - Set 2. [Related pubchem assays (depositor defined):AID435003, AID435012, AID489026]

With `CCCCNC(=O)CSCc1nc(-c2ccc(OCC)cc2)oc1C` the IC50 (Jurkat [1]) was > 80 µM (inactive), the IC50 (HEK293 [2]) was 38.8 µM (inactive) and the IC50 (HEK293 [3]) was 75.3 µM (inactive).
For `NS(=O)(=O)c1ccc(NC(=O)c2ccc([N+](=O)[O-])o2)cc1`, the IC50 (HEK293 [3]) was 71.3 µM (inactive), the IC50 (Jurkat [4]) was 17.4 µM (active) and the IC50 (HEK293 [5]) was 20.5 µM (inactive).
